Results taken from patent US9867796B2, “Combination of a leucine source and an omega-3 unsaturated fatty acid source for use in the treatment of hypercalcaemia” (N.V. Nutricia, priority 2009, dated 2018).

How the values were obtained:
[1] = test system: tumour-bearing mice (Murine C-26 adenocarcinoma cells); assay: Bone mineral density in C-26 tumour-bearing mice on experimental diets (experiment A); type: in vivo; conditions: diet added to AIN93-M high protein, day 20, compared to TB on control diet (FIG. 1A)
[2] = test system: tumour-bearing mice (Murine C-26 adenocarcinoma cells); assay: Plasma calcium levels in C-26 tumour-bearing mice, single or combined ingredients (experiment A); type: in vivo; conditions: diet added to AIN93-M high protein, day 20, compared to TB on control diet (FIG. 1B)

Which results are given for `CC(C)C[C@H](N)C(=O)O` [leucine]?
bone mineral density [1]: did not result in significant changes compared to TB; plasma calcium levels [2]: no effect
